Test results as given in patent publication US4877795A, “4H-quinolizin-4-one compounds useful for the treatment of allergic bronchial asthma, allergic rhinitis atropic dermatitis and the like” (Kissei Pharmaceutical Co., Ltd., priority 1987, dated 1989).

How the values were obtained:
[1] = tested on: IgG; assay: Determination of Igs produced in in vitro culture: inhibition of IgG secreted by spleen cells (adoptive secondary immune response to DNP-As), ELISA; format: cell-based, BALB/c mice; details: 4 days culture; for inhibition at 1 µg/mL / inhibition at 0.25 µg/mL / inhibition at 40 µg/mL / inhibition at 5 µg/mL / inhibition at 20 µg/mL / inhibition at 10 µg/mL / inhibition at 2.5 µg/mL: Mus musculus, 96 h; for inhibition at 1 µg/mL / Inhibition % of IgG: 1.0 μg/ml; for inhibition at 0.25 µg/mL: 0.25 μg/ml; for inhibition at 40 µg/mL: 40.0 μg/ml; for inhibition at 5 µg/mL: 5.0 μg/ml; for inhibition at 20 µg/mL: 20.0 μg/ml; for inhibition at 10 µg/mL: 10.0 μg/ml; for inhibition at 2.5 µg/mL: 2.5 μg/ml
Experimental: (§1) Determination of Igs produced in in vitro culture
(§2) BALB/c mice were immunized intraperitoneally with 5 μg of DNP-As adsorbed in 4 mg aluminum hydroxide gel. 4 weeks after the immunization, the spleens were excised from the mice and 5×10^7 spleen cells were transferred intravenously into the recipient mice which had been exposed to 600 rad of X-ray irradiation. Immediately after cell transfer, the recipients were then immunized intraperitoneally with 5 μg of DNP-As adsorbed in 4 mg aluminum hydroxide gel to induce adoptive secondary immune response. Further 4 weeks after the immunization of recipients, the spleens were excised from them and the spleen cell suspensions 5×10^6 cells/ml were cultured with or without a compound to be tested in 96-well micro plates at 37° C. for 4 days. IgE and IgG secreted into the culture supernatant was each determined correspondingly by ELISA and the inhibitory effect was calculated according to the following equation. [formula]

[2] = tested on: IgE; assay: Determination of Igs produced in in vitro culture: inhibition of IgE secreted by spleen cells (adoptive secondary immune response to DNP-As), ELISA; format: cell-based, BALB/c mice; details: 4 days culture; for inhibition at 1 µg/mL / inhibition at 0.25 µg/mL / inhibition at 40 µg/mL / inhibition at 5 µg/mL / inhibition at 20 µg/mL / inhibition at 10 µg/mL / inhibition at 2.5 µg/mL: Mus musculus, 96 h; for inhibition at 0.25 µg/mL: 0.25 μg/ml; for inhibition at 40 µg/mL: 40.0 μg/ml; for inhibition at 5 µg/mL: 5.0 μg/ml; for inhibition at 20 µg/mL: 20.0 μg/ml; for inhibition at 10 µg/mL: 10.0 μg/ml; for inhibition at 2.5 µg/mL: 2.5 μg/ml
Experimental: as §1, §2

CSc1c(C#N)c(=O)n2ccccc2c1C(=O)N1CCC(Cc2ccccc2)CC1 (single isomer, unassigned) [S-82A, 1-(4-Benzylpiperidinocarbonyl)-3-cyano-2-methylthio-4H-quinolizin-4-one]
inhibition at 1 µg/mL [1]: 18% | inhibition at 1 µg/mL ([2]; 1.0 μg/ml): 43%

CSc1c(C#N)c(=O)n2ccccc2c1C(=O)OCc1ccc(F)cc1 [S-34, 4'-Fluorobenzyl 3-cyano-2-methylthio-4H-quinolizin-4-one-1-carboxylate]
inhibition at 0.25 µg/mL [1]: 31% | inhibition at 0.25 µg/mL [2]: 52%

CSc1c(C#N)c(=O)n2ccc(C)cc2c1C(=O)CCCCc1ccccc1 [S-108, 3-Cyano-8-methyl-2-methylthio-1-(5-phenylvaleryl)-4H-quinolizin-4-one]
inhibition at 1 µg/mL [1]: 35% | inhibition at 1 µg/mL ([2]; 1.0 μg/ml): 60%

CSc1c(C#N)c(=O)n2ccccc2c1C(=O)Cc1ccc(C)c(C)c1 [S-101, 3-Cyano-1-(3,4-dimethylphenylacetyl)-2-methylthio-4H-quinolizin-4-one]
inhibition at 40 µg/mL [1]: 13% | inhibition at 40 µg/mL [2]: 58%

CSc1c(C#N)c(=O)n2ccccc2c1C(=O)O[C@H]1CC[C@H](O)CC1 [S-16, trans-4'-Hydroxycyclohexyl 3-cyano-2-methylthio-4H-quinolizin-4-one-1-carboxylate]
inhibition at 5 µg/mL [1]: 14% | inhibition at 5 µg/mL [2]: 52%

C=C(C)CSc1c(C#N)c(=O)n2ccccc2c1C(=O)OCC [S-56]
inhibition at 5 µg/mL [1]: 30% | inhibition at 5 µg/mL [2]: 70%

CSc1c(C#N)c(=O)n2ccccc2c1C(=O)OC1CCCCC1 [S-14, Cyclohexyl 3-cyano-2-methylthio-4H-quinolizin-4-one-1-carboxylate]
inhibition at 1 µg/mL [1]: 39% | inhibition at 1 µg/mL ([2]; 1.0 μg/ml): 69%

CCOC(=O)c1c(SCc2ccccc2)c(C#N)c(=O)n2ccccc12 [S-59, Ethyl 3-cyano-2-benzylthio-4H-quinolizin-4-one-1-carboxylate]
inhibition at 40 µg/mL [1]: 49% | inhibition at 40 µg/mL [2]: 74%

C=CCOC(=O)c1c(SC)c(C#N)c(=O)n2ccccc12 [S-5, 2'-Propenyl 3-cyano-2-methylthio-4H-quinolizin-4-one-1-carboxylate]
inhibition at 20 µg/mL [1]: 47% | inhibition at 20 µg/mL [2]: 77%

COc1ccccc1COC(=O)c1c(SC)c(C#N)c(=O)n2ccccc12 [S-37, 2'-Methoxybenzyl 3-cyano-2-methylthio-4H-quinolizin-4-one-1-carboxylate]
inhibition at 0.25 µg/mL [1]: 11% | inhibition at 0.25 µg/mL [2]: 36%

CSc1c(C#N)c(=O)n2cccc(C)c2c1C(=O)N1CCC(c2ccccc2)CC1 (single isomer, unassigned) [S-81A, 3-Cyano-9-methyl-2methylthio-1-(4-phenylpiperidinocarbonyl)-4H-quinolizin-4-one]
Inhibition % of IgG [1]: 17% | inhibition at 1 µg/mL ([2]; 1.0 μg/ml): 46%

CSc1c(C#N)c(=O)n2ccccc2c1C(=O)OCCCC1CCCCC1 [S-3, 3'-Cyclohexylpropyl 3-cyano-2-methylthio-4H-quinolizin-4-one-1-carboxylate]
inhibition at 1 µg/mL [1]: 35% | inhibition at 1 µg/mL ([2]; 1.0 μg/ml): 79%

CSc1c(C#N)c(=O)n2ccccc2c1C(=O)Cc1ccccc1C [S-98, 3-Cyano-1-(2-methylphenylacetyl)-2-methylthio-4H-quinolizin-4-one]
inhibition at 10 µg/mL [1]: 13% | inhibition at 10 µg/mL [2]: 38%

CSc1c(C#N)c(=O)n2ccccc2c1C(=O)N1CCc2ccccc2C1 [S-87, 3-Cyano-2-methylthio-1-(1,2,3,4-tetrahydroisoquinolin-2-ylcarbonyl)-4H-quinolizin-4-one]
inhibition at 5 µg/mL [1]: 36% | inhibition at 5 µg/mL [2]: 61%

CSc1c(C#N)c(=O)n2ccccc2c1C(=O)N1CCC(Cc2ccccc2)CC1 (single isomer, unassigned) [S-82B, 1-(4-Benzylpiperidinocarbonyl)-3-cyano-2-methylthio-4H-quinolizin-4-one]
inhibition at 2.5 µg/mL [1]: 8% | inhibition at 2.5 µg/mL [2]: 63%

CSc1c(C#N)c(=O)n2ccccc2c1C(=O)N1CCN(Cc2ccc3c(c2)OCO3)CC1 [S-89, 3-Cyano-2-methylthio-1-(4-piperonyl-1-piperadinyl-carbonyl)-4H-quinolizin-4-one]
inhibition at 5 µg/mL [1]: 32% | inhibition at 5 µg/mL [2]: 58%

CSc1c(C#N)c(=O)n2ccccc2c1C(=O)OCCCc1ccccc1 [S-45, 3'-Phenylpropyl 3-cyano-2-methylthio-4H-quinolizin-4-one-1-carboxylate]
inhibition at 5 µg/mL [1]: 16% | inhibition at 5 µg/mL [2]: 71%

CSc1c(C#N)c(=O)n2ccccc2c1C(=O)OC1C2CC3CC(C2)CC1C3 (stereo not shown) [S-21, 2'-Adamantyl 3-cyano-2-methylthio-4H-quinolizin-4-one-1-carboxylate]
inhibition at 5 µg/mL [1]: 47% | inhibition at 5 µg/mL [2]: 70%

CSc1c(C#N)c(=O)n2ccccc2c1C(=O)N1CCC2CCCCC21 (single isomer, unassigned) [S-85A, 3-Cyano-2-methylthio-1-(perhydroindol-1-yl-carbonyl)-4H-quinolizin-4-one]
inhibition at 5 µg/mL [1]: 23% | inhibition at 5 µg/mL [2]: 43%

CCC(C)OC(=O)c1c(SC)c(C#N)c(=O)n2ccccc12 (stereo not shown) [S-10, 1'-Methylpropyl 3-cyano-2-methylthio-4H-quinolizin-4-one-1-carboxylate]
inhibition at 2.5 µg/mL [1]: 27% | inhibition at 2.5 µg/mL [2]: 48%

CSc1c(C#N)c(=O)n2ccccc2c1C(=O)N(CC(C)C)CC(C)C [S-64, 3-Cyano-N,N-diisobutyl-2-methylthio-4H-quinolizin-4-one-1-carboxamide]
inhibition at 5 µg/mL [1]: 41% | inhibition at 5 µg/mL [2]: 65%

CSc1c(C#N)c(=O)n2ccccc2c1C(=O)OCc1cccc(Cl)c1 [S-38, 3'-Chlorobenzyl 3-cyano-2-methylthio-4H-quinolizin-4-one-1-carboxylate]
inhibition at 1 µg/mL [1]: 43% | inhibition at 1 µg/mL ([2]; 1.0 μg/ml): 77%

CSc1c(C#N)c(=O)n2ccccc2c1C(=O)NC1CCCCC1 [S-72, 3-Cyano-N-cyclohexyl-2-methylthio-4H-quinolizin-4-one-1-carboxamide]
inhibition at 5 µg/mL [1]: -5% | inhibition at 5 µg/mL [2]: 46%

CSc1c(C#N)c(=O)n2ccccc2c1C(=O)OCCC(C)C [S-11, Isopentyl 3-cyano-2-methylthio-4H-quinolizin-4-one-1-carboxylate]
inhibition at 5 µg/mL [1]: 30% | inhibition at 5 µg/mL [2]: 66%

CSc1c(C#N)c(=O)n2ccccc2c1C(=O)OC1CCCCCCC1 [S-20, Cyclooctyl 3-cyano-2-methylthio-4H-quinolizin-4-one-1-carboxylate]
inhibition at 5 µg/mL [1]: 52% | inhibition at 5 µg/mL [2]: 84%

CCCCSc1c(C#N)c(=O)n2ccccc2c1C(=O)OCC [S-58, Ethyl 3-cyano-2-butylthio-4H-quinolizin-4-one-1-carboxylate]
inhibition at 10 µg/mL [1]: 60% | inhibition at 10 µg/mL [2]: 89%

CSc1c(C#N)c(=O)n2ccccc2c1C(=O)OCC1CC1 [S-2, Cyclopropylmethyl 3-cyano-2-methylthio-4H-quinolizin-4-one-1-carboxylate]
inhibition at 5 µg/mL [1]: 27% | inhibition at 5 µg/mL [2]: 51%

CSc1c(C#N)c(=O)n2ccccc2c1C(=O)Cc1ccccc1 [S-95, 3-Cyano-2-methylthio-1-phenylacetyl-4H-quinolizin-4-one]
inhibition at 20 µg/mL [1]: 47% | inhibition at 20 µg/mL [2]: 70%

CSc1c(C#N)c(=O)n2ccccc2c1C(=O)OC/C=C/c1ccccc1 [S-47, trans-Cinnamyl 3-cyano-2-methylthio-4H-quinolizin-4-one-1-carboxylate]
inhibition at 40 µg/mL [1]: 28% | inhibition at 40 µg/mL [2]: 60%

CSc1c(C#N)c(=O)n2ccccc2c1C(=O)OC(C)CCc1ccccc1 (stereo not shown) [S-46, 1'-Methyl-3'-phenylpropyl 3-cyano-2-methylthio-4H-quinolizin-4-one-1-carboxylate]
inhibition at 1 µg/mL [1]: 79% | inhibition at 1 µg/mL ([2]; 1.0 μg/ml): 90%

CSc1c(C#N)c(=O)n2ccccc2c1C(=O)NCCCc1ccccc1 [S-71]
inhibition at 5 µg/mL [1]: 35% | inhibition at 5 µg/mL [2]: 63%

CSc1c(C#N)c(=O)n2ccccc2c1C(=O)N1CCN(Cc2ccccc2)CC1 [S-90, 1-(4-Benzyl-1-piperadinylcarbonyl)-3-cyano-2-methylthio-4H-quinolizin-4-one]
inhibition at 5 µg/mL [1]: 14% | inhibition at 5 µg/mL [2]: 45%

CSc1c(C#N)c(=O)n2ccccc2c1C(=O)NCc1ccccc1 [S-73, N-Benzyl-3-cyano-2-methylthio-4H-qunolizin-4-one-1-carboxamide]
inhibition at 40 µg/mL [1]: 24% | inhibition at 40 µg/mL [2]: 55%

CSc1c(C#N)c(=O)n2ccccc2c1C(=O)OCc1ccc(C(C)C)cc1 [S-36, 4'-Isopropylbenzyl 3-cyano-2-methylthio-4H-quinolizin-4-one-1-carboxylate]
inhibition at 0.25 µg/mL [1]: 8% | inhibition at 0.25 µg/mL [2]: 33%

CSc1c(C#N)c(=O)n2ccccc2c1C(C)=O [S-92, 1-Acetyl-3-cyano-2-methylthio-4H-quinolizin-4-one]
inhibition at 40 µg/mL [1]: 8% | inhibition at 40 µg/mL [2]: 56%

CSc1c(C#N)c(=O)n2ccccc2c1C(=O)CCCc1cccs1 [S-106, 3-Cyano-2-methylthio-1-(4-thienylbutyryl)-4H-quinolizin-4-one]
Inhibition % of IgG [1]: 26% | Inhibition % of IgE ([2]; 1.0 μg/ml): 61%

CSc1c(C#N)c(=O)n2ccccc2c1C(=O)N1CCC(OC(C)=O)(c2ccccc2)CC1 [S-80, 1-(4-Acetoxy-4-phenylpiperidinocarbonyl)-3-cyano-methylthio-4H-quinolizin-4-one]
inhibition at 2.5 µg/mL [1]: 34% | inhibition at 2.5 µg/mL [2]: 66%

CSc1c(C#N)c(=O)n2ccccc2c1C(=O)N(C(C)C)C1CCCCC1 [S-69, 3-Cyano-N-cyclohexyl-N-isopropyl-2-methylthio-4H-quinolizin-4-one-1-carboxamide]
inhibition at 2.5 µg/mL [1]: 22% | inhibition at 2.5 µg/mL [2]: 56%
